In patent US20230190797A1, “COMPOSITIONS AND METHODS FOR ADOPTIVE CELL THERAPY” (MEMORIAL SLOAN KETTERING CANCER CENTER, priority 2017, published 2023):
Where two headings read alike, the source gives them in different places.

Assays:
[1] = Cell permeability in CACO-2 cells; format: in vitro ADME; settings: human, read-out: Efflux Ratio (B-A/A-B)
[2] = system: HEK293T cells expressing CPG2 variants; assay: Viability of HEK293T cells expressing CPG2 variants exposed to prodrug; format: cell-based, human
Method: FIG. 9 provides exemplary data showing that that cell-secreted and transmembrane CPG2 expressed in stably transfected cells activates an AIS prodrug. Expression of CPG2 without a signal peptide (CPG2nosigp) was employed as a control. 293t cells stably transfected with CPG2 variants were exposed to P-AMS (1 μM) for 48 hours and analyzed by bright field microscopy (FIG. 9A). Cells were exposed to varying concentrations of P-AMS and cell viability was analyzed at 48 hr post treatment (FIG. 9B).
Expression of CPG2 without a signal peptide (CPG2nosigp) was employed as a control. HEK293t cells stably transfected with CPG2 variants were exposed to P-AMS (1 μM) for 48 hours and analyzed by bright field microscopy (FIG. 9A). Cells were exposed to varying concentrations of P-AMS and cell viability was analyzed at 48 hr post treatment (FIG. 9B).

[3] = system: endogenous glutamate carboxypeptidase expressed in human prostate cells; assay: Prodrug stability towards endogenous glutamate carboxypeptidase, LNCap viability; format: cell-based
Source text: This prodrug/drug combination was chosen for further development of the SEAKER systems.

[4] = mouse, in vivo
in vivo = settings: NOD, mouse
HEK293T (kidney) = assay: CellTitre Glo in vitro cytotoxicity, HEK293T; format: cell-based, human; settings: prodrug versus AMS
primary T-cells = assay: CellTitre Glo in vitro cytotoxicity, primary T cells; format: cell-based; settings: prodrug versus AMS
[5] = system: myeloid leukemia cell line SET2; assay: Cytotoxicity, SET2; format: cell-based; settings: Set2, prodrug versus AMS
SET2 cells = assay: SET2 viability with prodrug plus enzyme or enzyme-containing supernatant; format: cell-based; settings: increasing prodrug
Method: Recombinant CPG2 protein was initially synthesized, purified (FIGS. 18A and 18B), and incubated with increasing concentrations of prodrug in a glutamate release assay (FIG. 17C). Mass spectrometry was used to determine that the glutamate moiety was released from all of the glutamate prodrugs.
Cell viability was measured by CellTitre-Glo® luminescence assay.
To determine to respective enzyme output of the Beta-lactamase constructs relative to the previous CPG2 constructs, a quantitative sandwich ELISA was used to determine the concentration (ng/mL) of purified recombinant CPG2, and a quantitative nitrocefin assay was used to determine the concentration (ng/mL) of purified recombinant Beta-lactamase (FIG. 25A). Cell viability was measured by CellTitre-Glo® luminescence in the presence of prodrug (glut-AMS or ceph-AMS) and varying concentrations of purified recombinant CPG2 or Beta-lactamase (FIG. 25B).

CN(C)C(=O)C(CCN1CCC(O)(c2ccc(Cl)cc2)CC1)(c1ccccc1)c1ccccc1 [Loperamide]
efflux ratio ([1]; Caco-2, with Ver (concentration not stated), + Ver): 0.7
efflux ratio ([1]; Caco-2, without Ver): 7.7

NS(=O)(=O)OC[C@H]1O[C@@H](n2cnc3c(NC(=O)N[C@@H](CCC(=O)O)C(=O)O)ncnc32)[C@H](O)[C@@H]1O [P-AMS, ((9-((2R,3R,4S,5R)-3,4-dihydroxy-5-((sulfamoyloxy)methyl)tetrahydrofuran-2-yl)-9H-purin-6-yl)carbamoyl)-L-glutamic acid]
activation of prodrug by cells expressing CPG intracellularly ([2]; HEK293T cells expressing CPG intracellularly): not activated
cell death of cells expressing secreted or transmembrane CPG2 ([2]; stably transfected HEK293T, cell-secreted and transmembrane CPG2, 48 hr, no-signal-peptide control did not): significant cell death
stability in presence of endogenous glutamate carboxypeptidase [3]: remained stable
toxicity in mice [4]: non-toxic
half-life (in vivo): 30 to 40 min

Nc1ncnc2c1ncn2[C@@H]1O[C@H](COS(=O)(=O)NCC2=C(C(=O)O)N3C(=O)[C@@H](NC(=O)Cc4cccs4)[C@H]3SC2)[C@@H](O)[C@H]1O [ceph-AMS]
Selective Index, HEK293t (HEK293T (kidney)): ~3
Selective Index, Human T cell (primary T-cells): >6
Selective Index, Set2 [5]: ~64
SET2 cell viability with Beta-lactamase supernatant (SET2 cells): significant decrease in cell viability
